Patent US11945822B2, “Pyrazolo-triazine and/or pyrazolo-pxrimidine derivatives as selective inhibitor of cyclin dependent kinase” (QURIENT CO., LTD., priority 2018, dated 2024)

Legend:
CDK1/Cyclin B = molecular target: T1, CDK1/Cyclin B (Homo sapiens, UniProt P06493); assay: Enzymatic assay for CDK1 (FRET based LANCE Ultra kinase assay); format: biochemical; conditions: read-out: CDK1 enzymatic activity (IC50 range)
T1 construct: purchased Invitrogen PR4768C
Summary of the method: (§1)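 Each CDK complex ([…]) phosphorylated 68 nM ULight-MBP peptide with ATP at Km for 60 min at 23° C., against 8 compound doses (4-fold dilutions). EDTA/Eu-anti-phospho-MBP detection, 60 min, then TR-FRET emission at 615 and 665 nm.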

CDK2/Cyclin A = molecular target: T2, CDK2/Cyclin A (Homo sapiens, UniProt P24941); assay: Enzymatic assay for CDK2 (FRET based LANCE Ultra kinase assay); format: biochemical; conditions: read-out: CDK2 enzymatic activity (IC50 range)
T2 construct: purchased Invitrogen PV6290
Summary of the method: as §1

CDK5/p25 = molecular target: T3, CDK5/p25 (Homo sapiens, UniProt Q00535); assay: Enzymatic assay for CDK5 (FRET based LANCE Ultra kinase assay); format: biochemical; conditions: read-out: CDK5 enzymatic activity (IC50 range)
T3 construct: purchased Invitrogen PR8543B
T3 sequence (Q00535 whole entry): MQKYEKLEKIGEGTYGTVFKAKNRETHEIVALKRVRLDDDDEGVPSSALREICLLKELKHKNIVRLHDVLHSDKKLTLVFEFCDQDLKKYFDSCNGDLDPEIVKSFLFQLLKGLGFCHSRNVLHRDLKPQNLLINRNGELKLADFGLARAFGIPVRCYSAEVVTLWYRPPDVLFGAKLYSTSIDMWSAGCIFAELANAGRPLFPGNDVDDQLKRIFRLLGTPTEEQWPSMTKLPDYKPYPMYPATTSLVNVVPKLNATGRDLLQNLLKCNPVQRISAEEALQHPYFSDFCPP
T3 sequence (Q15078 99-307 partner limits assumed): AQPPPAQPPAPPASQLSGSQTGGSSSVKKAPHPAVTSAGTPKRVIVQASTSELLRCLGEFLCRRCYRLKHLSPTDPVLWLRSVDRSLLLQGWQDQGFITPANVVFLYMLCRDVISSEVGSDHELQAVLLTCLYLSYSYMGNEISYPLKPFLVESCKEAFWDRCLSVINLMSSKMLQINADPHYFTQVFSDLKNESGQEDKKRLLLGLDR
Summary of the method: as §1

CDK7/Cyclin H/MNAT1 = molecular target: T4, CDK7/Cyclin H/MNAT1 (Homo sapiens, UniProt P50613); assay: Enzymatic assay for CDK7 (FRET based LANCE Ultra kinase assay); format: biochemical; conditions: for IC50: read-out: CDK7 enzymatic activity (IC50 range)
T4 construct: purchased Invitrogen PR6749B
T4 sequence (P50613 whole entry): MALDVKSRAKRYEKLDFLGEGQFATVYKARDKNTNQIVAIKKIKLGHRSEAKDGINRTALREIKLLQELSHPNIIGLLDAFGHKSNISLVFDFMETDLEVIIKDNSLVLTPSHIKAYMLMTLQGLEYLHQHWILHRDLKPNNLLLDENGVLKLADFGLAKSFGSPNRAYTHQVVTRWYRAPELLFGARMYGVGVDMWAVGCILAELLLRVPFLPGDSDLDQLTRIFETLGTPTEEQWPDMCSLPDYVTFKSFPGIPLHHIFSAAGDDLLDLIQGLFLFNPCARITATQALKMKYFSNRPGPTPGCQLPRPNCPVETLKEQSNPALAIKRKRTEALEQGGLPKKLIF
T4 sequence (P51946 whole entry partner): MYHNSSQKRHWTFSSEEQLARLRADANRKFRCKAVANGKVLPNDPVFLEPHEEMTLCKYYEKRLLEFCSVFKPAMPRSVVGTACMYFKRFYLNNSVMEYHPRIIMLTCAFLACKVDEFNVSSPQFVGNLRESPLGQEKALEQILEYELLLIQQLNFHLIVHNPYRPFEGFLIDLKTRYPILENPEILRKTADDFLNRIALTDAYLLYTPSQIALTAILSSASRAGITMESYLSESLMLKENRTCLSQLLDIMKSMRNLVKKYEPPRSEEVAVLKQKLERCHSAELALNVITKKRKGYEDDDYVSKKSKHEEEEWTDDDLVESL
T4 sequence (P51948 whole entry partner): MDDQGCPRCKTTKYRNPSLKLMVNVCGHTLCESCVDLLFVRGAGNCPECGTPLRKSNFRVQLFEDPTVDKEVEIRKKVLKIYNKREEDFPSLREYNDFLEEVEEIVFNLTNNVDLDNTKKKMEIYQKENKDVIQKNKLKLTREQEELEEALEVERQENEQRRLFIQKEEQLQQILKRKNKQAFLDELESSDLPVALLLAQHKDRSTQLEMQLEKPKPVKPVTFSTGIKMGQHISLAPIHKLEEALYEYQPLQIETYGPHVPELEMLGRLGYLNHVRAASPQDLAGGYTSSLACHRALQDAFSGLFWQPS
Summary of the method: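 Inhibition was measured at Km ATP by time-resolved FRET between a Eu anti-phospho antibody and a phosphorylated ULight peptide. The enzyme was the purified CDK7/cyclin complex, and data were curve-fitted.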

MV4-11 = assay: Cellular MV4-11 viability assay (CellTiter-Glo, 72 hours); format: cell-based; conditions: Homo sapiens
Summary of the method: (§2)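 Growth inhibition is assessed over a 72-hour incubation at 37 °C in 5% CO2, relative to DMSO vehicle (final concentration less than 0.1%). Luminescence from CellTiter-Glo serves as the viability signal.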

MOLT-4 = assay: Cellular MOLT-4 viability assay (CellTiter-Glo, 72 hours); format: cell-based; conditions: Homo sapiens, MOLT4 viability assay
Summary of the method: as §2

RPMI-8226 = assay: Cellular RPMI-8226 viability assay (CellTiter-Glo, 72 hours); format: cell-based; conditions: Homo sapiens
Summary of the method: as §2

H460 = assay: Cellular H460 viability assay (CellTiter-Glo, 72 hours); format: cell-based; conditions: Homo sapiens, NCI-H460
Summary of the method: as §2

T1 sequence (P06493 whole entry): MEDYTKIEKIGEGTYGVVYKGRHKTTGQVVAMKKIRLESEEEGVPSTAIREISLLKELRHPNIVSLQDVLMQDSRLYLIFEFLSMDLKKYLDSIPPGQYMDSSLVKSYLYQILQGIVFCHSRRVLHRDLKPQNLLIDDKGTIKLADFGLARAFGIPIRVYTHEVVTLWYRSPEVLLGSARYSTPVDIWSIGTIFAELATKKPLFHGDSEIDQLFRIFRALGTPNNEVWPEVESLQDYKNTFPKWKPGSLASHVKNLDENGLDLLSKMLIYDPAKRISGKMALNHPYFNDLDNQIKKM
T1 sequence (P14635 whole entry partner): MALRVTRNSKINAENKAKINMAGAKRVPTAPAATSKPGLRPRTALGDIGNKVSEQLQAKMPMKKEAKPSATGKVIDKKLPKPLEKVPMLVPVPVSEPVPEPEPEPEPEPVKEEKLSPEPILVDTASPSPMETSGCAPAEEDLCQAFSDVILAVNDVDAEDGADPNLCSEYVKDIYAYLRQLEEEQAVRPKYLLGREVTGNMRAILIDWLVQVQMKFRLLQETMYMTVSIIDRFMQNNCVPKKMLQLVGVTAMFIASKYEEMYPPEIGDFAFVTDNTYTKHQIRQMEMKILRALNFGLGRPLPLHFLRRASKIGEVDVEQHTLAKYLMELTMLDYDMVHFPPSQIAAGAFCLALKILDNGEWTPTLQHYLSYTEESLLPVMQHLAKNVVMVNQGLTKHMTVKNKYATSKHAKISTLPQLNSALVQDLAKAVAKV

| SMILES | IC50 (CDK1/Cyclin B) | IC50 (CDK2/Cyclin A) | IC50 (CDK5/p25) | CDK1/CDK7: Selectivity of CDK7 inhibition over CDK1 inhibition (CDK7/Cyclin H/MNAT1) | CDK2/CDK7: Selectivity of CDK7 inhibition over CDK2 inhibition (CDK7/Cyclin H/MNAT1) | CDK5/CDK7: Selectivity of CDK7 inhibition over CDK5 inhibition (CDK7/Cyclin H/MNAT1) | IC50 (CDK7/Cyclin H/MNAT1) | IC50 (MV4-11) | IC50 (MOLT-4) | IC50 (RPMI-8226) | IC50 (H460) |
| --- | --- | --- | --- | --- | --- | --- | --- | --- | --- | --- | --- |
| CC(C)c1cnn2c(NCc3ccccc3-c3nccc4cc(NC(=O)CCCN(C)C)ccc34)nc(N3CCC(N)CC3)nc12 [Compound 92] | > 1 µM | > 1 µM | > 1 µM | A (A=greater than 200 fold) | A (A=greater than 200 fold) | A (A=greater than 200 fold) | < 0.1 µM | < 1 µM | > 10 µM | 1 to 10 µM |  |
| CC(C)c1cnn2c(NCc3ccccc3-n3cc4cc(Cl)ccc4n3)nc(N3CCC(N)CC3)nc12 [Compound 103] | > 1 µM | 0.1 to 1 µM | 0.1 to 1 µM | A (A=greater than 200 fold) | B (B=less than 200 fold, but greater than 20 fold) | B (B=less than 200 fold, but greater than 20 fold) | < 0.1 µM | < 1 µM | 1 to 10 µM | < 1 µM | < 1 µM |
| CC(C)c1cnn2c(NCc3cccc4ccc(C5CC5)nc34)nc(N3CCC(N)CC3)nc12 [Compound 71] | > 1 µM | > 1 µM | 0.1 to 1 µM | B (B=less than 200 fold, but greater than 20 fold) | B (B=less than 200 fold, but greater than 20 fold) | B (B=less than 200 fold, but greater than 20 fold) | < 0.1 µM | 1 to 10 µM | 1 to 10 µM | 1 to 10 µM | 1 to 10 µM |
| CCCc1ccc2nn(-c3ccccc3CNc3nc(N4CCC(N)CC4)nc4c(C(C)C)cnn34)cc2c1 [Compound 106] | > 1 µM | 0.1 to 1 µM | 0.1 to 1 µM | A (A=greater than 200 fold) | B (B=less than 200 fold, but greater than 20 fold) | B (B=less than 200 fold, but greater than 20 fold) | < 0.1 µM | < 1 µM | 1 to 10 µM | < 1 µM | < 1 µM |
| CC(C)c1cnn2c(NCc3ccccc3N(C)c3ccccc3)nc(N3CCC(N)CC3)nc12 [Compound 63] | 0.1 to 1 µM | 0.1 to 1 µM | 0.1 to 1 µM | B (B=less than 200 fold, but greater than 20 fold) | B (B=less than 200 fold, but greater than 20 fold) | B (B=less than 200 fold, but greater than 20 fold) | < 0.1 µM |  | > 10 µM | 1 to 10 µM | < 1 µM |
| CC(C)c1cnn2c(NCc3cccc4c3N(C)C(=O)CC4)nc(N3CCC(N)CC3)nc12 [Compound 69] | 0.1 to 1 µM | < 0.1 µM | < 0.1 µM | B (B=less than 200 fold, but greater than 20 fold) | B (B=less than 200 fold, but greater than 20 fold) | C (C=less than 20 fold) | < 0.1 µM |  | 1 to 10 µM | < 1 µM | < 1 µM |
| CC(C)c1cnn2c(NCc3ccccc3-c3cc4ccccc4cn3)nc(N3CCC(N)CC3)nc12 [Compound 78] | 0.1 to 1 µM | 0.1 to 1 µM | < 0.1 µM | A (A=greater than 200 fold) | B (B=less than 200 fold, but greater than 20 fold) | B (B=less than 200 fold, but greater than 20 fold) | < 0.1 µM | < 1 µM | 1 to 10 µM | < 1 µM | < 1 µM |
| CC(C)c1cnn2c(NCc3ccccc3-n3cccn3)nc(-c3ccc(Cl)c(C4CCNCC4)c3)nc12 [Compound 170] | > 1 µM | > 1 µM | 0.1 to 1 µM | A (A=greater than 200 fold) | B (B=less than 200 fold, but greater than 20 fold) | B (B=less than 200 fold, but greater than 20 fold) | < 0.1 µM | < 1 µM | 1 to 10 µM | 1 to 10 µM | < 1 µM |
| CC(C)c1cnn2c(NCc3ccccc3Oc3ccccc3)nc(N3CCC(N)CC3)nc12 [Compound 56] | > 1 µM | > 1 µM | 0.1 to 1 µM | B (B=less than 200 fold, but greater than 20 fold) | B (B=less than 200 fold, but greater than 20 fold) | C (C=less than 20 fold) | < 0.1 µM |  | 1 to 10 µM | 1 to 10 µM | < 1 µM |
| CC(C)c1cnn2c(NCc3ccccc3-c3cccs3)nc(N3CCC(N)CC3)nc12 [Compound 44] | 0.1 to 1 µM | 0.1 to 1 µM | < 0.1 µM | B (B=less than 200 fold, but greater than 20 fold) | B (B=less than 200 fold, but greater than 20 fold) | B (B=less than 200 fold, but greater than 20 fold) | < 0.1 µM |  | 1 to 10 µM | < 1 µM | < 1 µM |
| CC(C)c1cnn2c(NCc3ccccc3N3CCCC3)nc(N3CCC(N)CC3)nc12 [Compound 54] | > 1 µM | 0.1 to 1 µM | 0.1 to 1 µM | B (B=less than 200 fold, but greater than 20 fold) | B (B=less than 200 fold, but greater than 20 fold) | C (C=less than 20 fold) | < 0.1 µM |  | 1 to 10 µM | 1 to 10 µM | < 1 µM |
| CC(C)c1cnn2c(NCc3ccccc3-c3cc4cccc(F)c4[nH]3)nc(N3CCC(N)CC3)nc12 [Compound 113] |  |  |  |  |  |  |  | < 1 µM | < 1 µM | < 1 µM | < 1 µM |
| CC(C)c1cnn2c(NCc3ccccc3-c3cc4ccccc4[nH]3)nc(OC3CCN(C)CC3)nc12 [Compound 115] | > 1 µM | 0.1 to 1 µM | 0.1 to 1 µM | A (A=greater than 200 fold) | B (B=less than 200 fold, but greater than 20 fold) | B (B=less than 200 fold, but greater than 20 fold) | < 0.1 µM | < 1 µM | 1 to 10 µM | 1 to 10 µM |  |
